Assay results: PubChem BioAssay AID2060511 (Molecular Pharmacology Branch, DTP, NCI, 2025)
pIC50: −log10 of the molar value.

Tested on: 422866-222-R5-J1-PDC spheroids with HUVEC/MSC, viability
Assay: Anticancer human tumor 422866-222-R5-J1-PDC patient-derived pancreatic adenocarcinoma cell line growth inhibition [GQUAD]
Conditions: for pIC50: curve of first compound; for viability, T/C: stronger effect = lower value; active = viability on the fitted dose curve at most 10% of control; inactive = the rest
Procedure, shortened: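 Tumor cells were grown as complex spheroids with HUVEC endothelial cells and mesenchymal stem cells as stroma. G-quadruplex stabilizers were combined with targeted agents over half-log dilutions from near the clinical Cmax, or from 10 microM.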

[1] = second compound 0.0316 µM, first compound 0.0316 µM
[2] = second compound 0.0316 µM, first compound 0.1 µM
[3] = second compound 0.0316 µM, first compound 0.316 µM
[4] = second compound 0.0316 µM, first compound 1 µM
[5] = second compound 0.0316 µM, first compound 3.16 µM
[6] = second compound 0.0316 µM, first compound 10 µM
[7] = second compound 0.1 µM, first compound 0.0316 µM
[8] = second compound 0.1 µM, first compound 0.1 µM
[9] = second compound 0.1 µM, first compound 0.316 µM
[10] = second compound 0.1 µM, first compound 1 µM
[11] = second compound 0.1 µM, first compound 3.16 µM
[12] = second compound 0.1 µM, first compound 10 µM
[13] = second compound 0.316 µM, first compound 0.0316 µM
[14] = second compound 0.316 µM, first compound 0.1 µM
[15] = second compound 0.316 µM, first compound 0.316 µM
[16] = second compound 0.316 µM, first compound 1 µM
[17] = second compound 0.316 µM, first compound 3.16 µM
[18] = second compound 0.316 µM, first compound 10 µM
[19] = second compound 1 µM, first compound 0.0316 µM
[20] = second compound 1 µM, first compound 0.1 µM
[21] = second compound 1 µM, first compound 0.316 µM
[22] = second compound 1 µM, first compound 1 µM
[23] = second compound 1 µM, first compound 3.16 µM
[24] = second compound 1 µM, first compound 10 µM
[25] = second compound 3.16 µM, first compound 0.0316 µM
[26] = second compound 3.16 µM, first compound 0.1 µM
[27] = second compound 3.16 µM, first compound 0.316 µM
[28] = second compound 3.16 µM, first compound 1 µM
[29] = second compound 3.16 µM, first compound 3.16 µM
[30] = second compound 3.16 µM, first compound 10 µM
[31] = second compound 10 µM, first compound 0.0316 µM
[32] = second compound 10 µM, first compound 0.1 µM
[33] = second compound 10 µM, first compound 0.316 µM
[34] = second compound 10 µM, first compound 1 µM
[35] = second compound 10 µM, first compound 3.16 µM
[36] = second compound 10 µM, first compound 10 µM
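Also: spheroids exposed to compounds for seven days before reading.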
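For viability, T/C in this document: percent viability relative to DMSO vehicle control taken as 100%.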

C=CCn1c(=O)c2cnc(Nc3ccc(N4CCN(C)CC4)cc3)nc2n1-c1cccc(C(C)(C)O)n1 + Cc1[nH]c2ccc(F)cc2c1-c1nc2c3cccnc3c3ncccc3c2[nH]1
< 5.00: pIC50 (second compound 0.0316 µM) | pIC50 (second compound 0.1 µM) | pIC50 (second compound 0.316 µM) | pIC50 (second compound 1 µM) | pIC50 (second compound 3.16 µM) | pIC50 (second compound 10 µM)
inactive: viability, T/C [1] 103% | viability, T/C [2] 110% | viability, T/C [3] 167% | viability, T/C [4] 125% | viability, T/C [5] 157% | viability, T/C [6] 91.9% | viability, T/C [7] 112% | viability, T/C [8] 101% | viability, T/C [9] 127% | viability, T/C [10] 146% | viability, T/C [11] 183% | viability, T/C [12] 107% | viability, T/C [13] 101% | viability, T/C [14] 127% | viability, T/C [15] 126% | viability, T/C [16] 130% | viability, T/C [17] 202% | viability, T/C [18] 112% | viability, T/C [19] 89.3% | viability, T/C [20] 122% | viability, T/C [21] 120% | viability, T/C [22] 121% | viability, T/C [23] 194% | viability, T/C [24] 122% | viability, T/C [25] 75.5% | viability, T/C [26] 74.5% | viability, T/C [27] 85.2% | viability, T/C [28] 117% | viability, T/C [29] 122% | viability, T/C [30] 76.9% | viability, T/C [31] 70.5% | viability, T/C [32] 51.5% | viability, T/C [33] 85.7% | viability, T/C [34] 68.5% | viability, T/C [35] 105% | viability, T/C [36] 79.3%

C=CC(=O)N1CCN(c2nc(=O)n(-c3c(C)ccnc3C(C)C)c3nc(-c4c(O)cccc4F)c(F)cc23)C(C)C1 (stereo unspecified) + Cc1cnc(CNC(=O)c2c(=O)c3ccc(N4CCCN(C)CC4)nc3n3c2sc2ccccc23)cn1
inactive: viability, T/C [1] 41.2% | viability, T/C [2] 32.1% | viability, T/C [3] 28.1% | viability, T/C [4] 19.9% | viability, T/C [5] 33.4% | viability, T/C [6] 30.6% | viability, T/C [7] 40.4% | viability, T/C [8] 30.4% | viability, T/C [9] 26.7% | viability, T/C [10] 25.7% | viability, T/C [11] 32.6% | viability, T/C [12] 30.6% | viability, T/C [13] 36.8% | viability, T/C [14] 30.4% | viability, T/C [15] 27.2% | viability, T/C [16] 29% | viability, T/C [17] 34% | viability, T/C [18] 33.7% | viability, T/C [19] 29.3% | viability, T/C [20] 28.6% | viability, T/C [21] 30.2% | viability, T/C [22] 28.1% | viability, T/C [23] 35.9% | viability, T/C [24] 37.7% | viability, T/C [25] 32% | viability, T/C [26] 32.4% | viability, T/C [27] 29.8% | viability, T/C [28] 27.9% | viability, T/C [29] 37.3% | viability, T/C [30] 36.4% | viability, T/C [31] 30.5% | viability, T/C [32] 23.3% | viability, T/C [33] 28.9% | viability, T/C [34] 27.8% | viability, T/C [35] 33.5% | viability, T/C [36] 34.2%
> 7.50: pIC50 (second compound 0.0316 µM) | pIC50 (second compound 0.1 µM) | pIC50 (second compound 0.316 µM) | pIC50 (second compound 1 µM) | pIC50 (second compound 3.16 µM) | pIC50 (second compound 10 µM)

CCCS(=O)(=O)Nc1ccc(F)c(C(=O)c2c[nH]c3ncc(-c4ccc(Cl)cc4)cc23)c1F + CN(C)c1ccc(Nc2c3ccc(NC(=O)CCN4CCCC4)cc3nc3cc(NC(=O)CCN4CCCC4)ccc23)cc1
inactive: viability, T/C [1] 95.8% | viability, T/C [2] 117% | viability, T/C [3] 121% | viability, T/C [4] 136% | viability, T/C [5] 164% | viability, T/C [6] 130% | viability, T/C [7] 112% | viability, T/C [8] 91.6% | viability, T/C [9] 112% | viability, T/C [10] 137% | viability, T/C [11] 203% | viability, T/C [12] 128% | viability, T/C [13] 98% | viability, T/C [14] 108% | viability, T/C [15] 122% | viability, T/C [16] 143% | viability, T/C [17] 158% | viability, T/C [18] 127% | viability, T/C [19] 74.3% | viability, T/C [20] 88.3% | viability, T/C [21] 113% | viability, T/C [22] 112% | viability, T/C [23] 196% | viability, T/C [24] 130% | viability, T/C [25] 83.8% | viability, T/C [26] 97.7% | viability, T/C [27] 97% | viability, T/C [28] 157% | viability, T/C [29] 189% | viability, T/C [30] 154% | viability, T/C [31] 90.3% | viability, T/C [32] 90.2% | viability, T/C [33] 123% | viability, T/C [34] 131% | viability, T/C [35] 129% | viability, T/C [36] 153%
< 5.00: pIC50 (second compound 0.0316 µM) | pIC50 (second compound 0.1 µM) | pIC50 (second compound 0.316 µM) | pIC50 (second compound 1 µM) | pIC50 (second compound 3.16 µM) | pIC50 (second compound 10 µM)
